From ChEMBL document CHEMBL1135193, “N-[2-(Indan-1-yl)-3-mercapto-propionyl] amino acids as highly potent inhibitors of the three vasopeptidases (NEP, ACE, ECE): In vitro and In vivo activities” (Bioorg Med Chem Lett, 2002) come the findings set out here.

In test [1] the target is T1, Angiotensin-converting enzyme (Rattus norvegicus, UniProt P47820).
T1 sequence (P47820 whole entry): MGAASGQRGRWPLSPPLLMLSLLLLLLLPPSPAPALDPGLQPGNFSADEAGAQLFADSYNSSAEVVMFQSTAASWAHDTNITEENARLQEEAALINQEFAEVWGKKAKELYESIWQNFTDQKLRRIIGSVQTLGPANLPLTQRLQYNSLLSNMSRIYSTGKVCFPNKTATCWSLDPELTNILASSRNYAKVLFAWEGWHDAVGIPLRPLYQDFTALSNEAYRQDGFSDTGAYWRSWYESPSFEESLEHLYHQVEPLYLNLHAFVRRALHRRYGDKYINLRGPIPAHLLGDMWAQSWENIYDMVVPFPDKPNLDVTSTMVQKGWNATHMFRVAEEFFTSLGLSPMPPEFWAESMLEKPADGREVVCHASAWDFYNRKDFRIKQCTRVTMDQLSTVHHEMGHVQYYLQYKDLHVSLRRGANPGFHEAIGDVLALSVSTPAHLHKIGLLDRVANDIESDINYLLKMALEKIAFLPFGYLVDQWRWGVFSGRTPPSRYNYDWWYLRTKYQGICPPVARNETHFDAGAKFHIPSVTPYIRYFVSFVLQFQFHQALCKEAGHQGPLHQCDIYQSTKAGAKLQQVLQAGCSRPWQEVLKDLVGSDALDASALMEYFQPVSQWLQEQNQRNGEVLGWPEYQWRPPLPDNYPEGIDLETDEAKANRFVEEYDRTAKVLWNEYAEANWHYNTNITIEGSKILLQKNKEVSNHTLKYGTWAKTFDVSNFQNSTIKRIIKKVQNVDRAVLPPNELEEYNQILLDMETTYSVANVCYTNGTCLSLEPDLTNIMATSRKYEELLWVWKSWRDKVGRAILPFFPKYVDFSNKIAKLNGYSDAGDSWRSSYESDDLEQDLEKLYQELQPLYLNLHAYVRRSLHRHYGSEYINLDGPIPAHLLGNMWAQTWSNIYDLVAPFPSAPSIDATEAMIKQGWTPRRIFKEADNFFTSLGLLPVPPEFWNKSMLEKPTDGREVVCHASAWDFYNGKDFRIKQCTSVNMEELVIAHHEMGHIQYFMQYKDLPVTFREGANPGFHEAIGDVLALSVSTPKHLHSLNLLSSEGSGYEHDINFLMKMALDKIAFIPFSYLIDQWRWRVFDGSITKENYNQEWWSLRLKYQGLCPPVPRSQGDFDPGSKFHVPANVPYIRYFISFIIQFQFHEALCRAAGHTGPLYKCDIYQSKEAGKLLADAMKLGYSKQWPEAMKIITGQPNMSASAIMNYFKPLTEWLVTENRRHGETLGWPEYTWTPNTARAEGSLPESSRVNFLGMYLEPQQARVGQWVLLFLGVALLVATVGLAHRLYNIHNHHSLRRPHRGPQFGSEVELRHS
Kind of test: In vitro inhibition of Angiotensin I converting enzyme.

The target of test [2] is T2, Endothelin-converting enzyme 1 (Homo sapiens, UniProt P42892).
T2 sequence (P42892 whole entry): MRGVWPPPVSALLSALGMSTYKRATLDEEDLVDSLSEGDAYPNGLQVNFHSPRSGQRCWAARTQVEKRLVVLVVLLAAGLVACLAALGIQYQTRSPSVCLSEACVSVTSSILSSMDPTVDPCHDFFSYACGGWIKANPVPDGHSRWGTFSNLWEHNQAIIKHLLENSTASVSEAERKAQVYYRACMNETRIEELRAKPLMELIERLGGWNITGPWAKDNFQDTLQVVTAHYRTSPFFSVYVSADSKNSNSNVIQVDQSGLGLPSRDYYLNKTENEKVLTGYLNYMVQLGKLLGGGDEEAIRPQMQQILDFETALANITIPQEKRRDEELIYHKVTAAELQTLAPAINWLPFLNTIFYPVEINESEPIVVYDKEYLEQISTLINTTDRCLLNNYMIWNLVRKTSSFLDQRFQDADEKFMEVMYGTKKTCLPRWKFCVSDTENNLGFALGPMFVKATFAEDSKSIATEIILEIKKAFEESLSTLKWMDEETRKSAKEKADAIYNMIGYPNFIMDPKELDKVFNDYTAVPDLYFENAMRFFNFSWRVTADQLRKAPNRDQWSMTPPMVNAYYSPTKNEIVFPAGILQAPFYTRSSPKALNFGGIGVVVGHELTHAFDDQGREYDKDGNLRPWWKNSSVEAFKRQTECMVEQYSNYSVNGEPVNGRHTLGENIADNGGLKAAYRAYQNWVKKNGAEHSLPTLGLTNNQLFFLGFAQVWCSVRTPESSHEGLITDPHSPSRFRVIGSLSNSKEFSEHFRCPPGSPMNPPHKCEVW
Kind of test: In vitro inhibition of endothelin converting enzyme.

The target in another test is T3, Neprilysin (Oryctolagus cuniculus, UniProt P08049).
T3 sequence (P08049 whole entry): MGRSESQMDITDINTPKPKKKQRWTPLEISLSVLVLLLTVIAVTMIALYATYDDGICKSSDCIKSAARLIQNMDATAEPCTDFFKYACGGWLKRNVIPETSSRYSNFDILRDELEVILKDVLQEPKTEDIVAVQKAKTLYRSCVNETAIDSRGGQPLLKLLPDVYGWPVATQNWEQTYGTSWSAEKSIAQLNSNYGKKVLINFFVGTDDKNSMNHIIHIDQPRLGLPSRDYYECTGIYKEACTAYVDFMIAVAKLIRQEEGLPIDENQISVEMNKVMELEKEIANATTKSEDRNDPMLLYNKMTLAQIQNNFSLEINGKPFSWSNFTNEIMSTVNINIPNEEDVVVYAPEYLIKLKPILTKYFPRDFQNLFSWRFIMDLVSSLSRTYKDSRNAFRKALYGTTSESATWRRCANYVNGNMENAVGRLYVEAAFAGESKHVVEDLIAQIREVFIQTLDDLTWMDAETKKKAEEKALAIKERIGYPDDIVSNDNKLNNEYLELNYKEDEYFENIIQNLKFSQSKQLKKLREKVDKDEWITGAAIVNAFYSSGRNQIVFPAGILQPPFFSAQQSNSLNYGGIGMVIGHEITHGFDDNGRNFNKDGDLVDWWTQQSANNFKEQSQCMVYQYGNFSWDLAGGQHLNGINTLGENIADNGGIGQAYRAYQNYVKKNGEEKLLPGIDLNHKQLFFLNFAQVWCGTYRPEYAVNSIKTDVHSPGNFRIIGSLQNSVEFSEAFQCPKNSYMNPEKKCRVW
The test can be described thus: In vitro inhibition of Neutral endopeptidase.

Test [3] addresses T4, Neprilysin (Mus musculus) (UniProt Q61391).
T4 sequence (whole entry): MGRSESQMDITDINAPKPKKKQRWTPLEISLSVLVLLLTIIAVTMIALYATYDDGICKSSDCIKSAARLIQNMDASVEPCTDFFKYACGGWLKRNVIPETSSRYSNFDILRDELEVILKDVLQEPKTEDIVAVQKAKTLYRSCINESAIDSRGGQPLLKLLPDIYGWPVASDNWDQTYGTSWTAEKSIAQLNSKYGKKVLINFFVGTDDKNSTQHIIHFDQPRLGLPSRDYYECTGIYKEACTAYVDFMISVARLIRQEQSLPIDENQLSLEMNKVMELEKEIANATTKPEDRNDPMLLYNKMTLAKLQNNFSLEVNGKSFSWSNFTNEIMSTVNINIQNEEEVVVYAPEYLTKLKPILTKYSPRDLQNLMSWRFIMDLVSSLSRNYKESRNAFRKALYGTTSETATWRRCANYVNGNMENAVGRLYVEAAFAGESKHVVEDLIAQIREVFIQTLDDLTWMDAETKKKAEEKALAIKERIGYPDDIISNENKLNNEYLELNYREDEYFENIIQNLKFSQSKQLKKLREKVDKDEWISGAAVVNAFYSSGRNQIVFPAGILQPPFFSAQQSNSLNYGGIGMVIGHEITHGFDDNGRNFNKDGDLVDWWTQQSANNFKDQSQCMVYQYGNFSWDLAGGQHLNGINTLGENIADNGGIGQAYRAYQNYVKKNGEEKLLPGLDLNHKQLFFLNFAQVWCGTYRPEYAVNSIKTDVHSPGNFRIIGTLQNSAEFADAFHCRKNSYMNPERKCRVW
Kind of test: In vivo inhibition of lung Neutral endopeptidase in mice was determined by blockage of enzyme at 25 mg/kg iv of compound. It counts as organism-based. Also on record: dose 25 mg/kg.

For test [4], the system named is Rattus norvegicus. Kind of test: Increase in MAP on intravenous injection of AI in vehicle at 1 nmol/kg iv in male wistar rats. In kind it is functional.
In test [5] the test system is Rattus norvegicus. The test can be described thus: Increase in mean arterial pressure (MAP) in anesthetized male wistar rats on iv injection of 1 nmol/kg big ET-1. It counts as functional, Artery.
Test [6] relates to Rattus norvegicus. Kind of test: Decrease of mean arterial pressure (MAP) on iv administration of sodium salt at 30 mg/kg at 5 or 15 min prior to the big ET-1 challenge in wistar rats. It counts as functional, Artery.

What is called Ki is a measure of affinity in units of concentration, obtained from inhibition or displacement. A higher Ki goes with weaker binding. One may read the inhibition as the drop in the measured response relative to a control, in per cent.

As to `N#Cc1ccc2c(c1)CCC2C(CS)C(=O)NC(Cc1c[nH]c2ccccc12)C(=O)O` (stereo unspecified), the Ki in test [1] was 3 nM; in test [2], 210 nM; at Neprilysin, 11 nM.

For the compound `CN(C)c1ccc2c(c1)CCC2C(CS)C(=O)NC(Cc1c[nH]c2ccccc12)C(=O)O` (stereo unspecified), the Ki amounted to 44 nM in test [1], 370 nM in test [2] and 15 nM on Neprilysin.

Regarding `O=C(O)[C@H](Cc1c[nH]c2ccccc12)NC(=O)[C@H](CS)[C@H]1CCc2cc(Br)ccc21`, the Ki was 55 nM in test [1], 18 nM in test [2] and 1.8 nM on Neprilysin.

Regarding `CSc1ccc2c(c1)CCC2C(CS)C(=O)NC(Cc1c[nH]c2ccccc12)C(=O)O` (stereo unspecified), the inhibition constant (Ki) in test [1] came out at 14 nM; in test [2], 35 nM; at Neprilysin, 6 nM.

On to `O=C(O)C(Cc1c[nH]c2ccccc12)NC(=O)C(CS)C1CCc2cc(O)ccc21` (stereo unspecified), for which the Ki in test [1] was 7 nM; in test [2] it was 90 nM; on Neprilysin, 4 nM.

Take `COc1ccc2c(c1)CC[C@@H]2[C@H](CS)C(=O)N[C@@H](Cc1c[nH]c2ccccc12)C(=O)O`: the values for the Ki (in test [1]; in test [2]; on Neprilysin) were 4.6 nM, 100 nM and 2.7 nM, respectively.

On to `COc1ccc2c(c1)CCC2C(CS)C(=O)NC(Cc1c[nH]c2ccccc12)C(=O)O` (stereo unspecified), for which the Ki in test [1] was determined as 11 nM; in test [2], 22 nM; on Neprilysin, 5 nM.

In the case of `COc1ccc2c(c1)CC[C@H]2[C@@H](CS)C(=O)N[C@@H](Cc1c[nH]c2ccccc12)C(=O)O`, the Ki in test [1] was 30 nM; in test [2] it was 180 nM; on Neprilysin, 15 nM.

In the case of `COc1cc2c(cc1OC)C(C(CS)C(=O)NC(Cc1c[nH]c3ccccc13)C(=O)O)CC2` (stereo unspecified), the Ki in test [1] was 78 nM; in test [2] it was 560 nM; on Neprilysin, 78 nM.

In test [3], `O=C(O)[C@H](Cc1c[nH]c2ccccc12)NC(=O)[C@@H](CS)[C@H]1CCc2cc(Br)ccc21` came in with an inhibition of 70%. For the same compound, the figures for the MAP in the test on Rattus norvegicus [4], in the test on Rattus norvegicus [5] and with Rattus norvegicus [6] were 15 mmHg, 57.2 mmHg and -15.2 mmHg, respectively. Further, the results for the inhibition constant Ki (in test [1]; in test [2]; at Neprilysin) were 4.1 nM, 28 nM and 3.8 nM, respectively.

In the case of `COc1ccc2c(c1)CC[C@H]2[C@H](CS)C(=O)N[C@@H](Cc1c[nH]c2ccccc12)C(=O)O`, the Ki in test [1] was 70 nM; in test [2], 1460 nM; at Neprilysin, 30 nM.

On to `COc1ccc2c(c1)C(C(CS)C(=O)NC(Cc1c[nH]c3ccccc13)C(=O)O)CC2` (stereo unspecified), for which the figures for the Ki (in test [1]; in test [2]; at Neprilysin) were 35 nM, 79 nM and 11 nM, respectively.

As to `COc1cccc2c1CCC2C(CS)C(=O)NC(Cc1c[nH]c2ccccc12)C(=O)O` (stereo unspecified), the Ki came to 8 nM in test [1], 760 nM in test [2] and 16 nM at Neprilysin.

For the compound `O=C(O)[C@H](Cc1c[nH]c2ccccc12)NC(=O)[C@H](CS)[C@@H]1CCc2cc(Br)ccc21`, the Ki stood at 66 nM in test [1], 90 nM in test [2] and 13 nM at Neprilysin.

As to `COc1ccc2c(c1)CC[C@@H]2[C@@H](CS)C(=O)N[C@@H](Cc1c[nH]c2ccccc12)C(=O)O`, the Ki in test [1] was found to be 24 nM; in test [2], 10 nM; on Neprilysin, 1.3 nM.

Regarding `CCOc1ccc2c(c1)CCC2C(CS)C(=O)NC(Cc1c[nH]c2ccccc12)C(=O)O` (stereo unspecified), the Ki is 18 nM in test [1], 47 nM in test [2] and 8 nM at Neprilysin.

On to `O=C(O)C(Cc1c[nH]c2ccccc12)NC(=O)C(CS)C1CCc2cc(Br)ccc21` (stereo unspecified), for which the Ki worked out at 12 nM in test [1], 31 nM in test [2] and 5 nM on Neprilysin.

For `O=C(O)[C@H](Cc1c[nH]c2ccccc12)NC(=O)[C@@H](CS)[C@@H]1CCc2cc(Br)ccc21`, the Ki turned out to be 58 nM in test [1], 110 nM in test [2] and 9.4 nM at Neprilysin.

As for `O=C(O)C(Cc1c[nH]c2ccccc12)NC(=O)C(CS)C1CCc2cc(-c3ccccc3)ccc21` (stereo unspecified), the Ki was 27 nM in test [1], 140 nM in test [2] and 14 nM at Neprilysin.
